{"source": "ChEMBL document CHEMBL4680108", "about": "“Ancistrolikokine E, a 5,8'-Coupled Naphthylisoquinoline Alkaloid, Eliminates the Tolerance of Cancer Cells to Nutrition Starvation by Inhibition of the Akt/mTOR/Autophagy Signaling Pathway” (2018)", "system": "PANC-1", "test": "Inhibition of autophagy in human PANC-1 cells cultured in nutrient-deprived medium assessed as accumulation of LC3-2 expression at 25 uM after 6 hrs by Western blot analysis relative to control", "assay_type": "functional", "data": [{"smiles": "CCN(CC)CCCC(C)Nc1ccnc2cc(Cl)ccc12", "note": "(stereo unspecified) [CHLOROQUINE]", "values": [{"measurement": "fold change (FC)", "value": 2}]}]}
